The text below walks through data of US10472353B2, “Salt and crystal forms of PLK-4 inhibitor” (University Health Network, priority 2013, dated 2019).

Each structure is given as a SMILES string. Where a name gives a salt, the structure may show the parent alone. Read-outs that look alike come from different tables or passages of the source.

A short description of series [1]: Solubility in deionized water. The series is classed as physicochemical.
The nature of series [2]: Gravimetric moisture sorption (dynamic vapour sorption, 25° C.). The conditions noted are these: for Gravimetric Moisture Sorption: 25° C. The series is classed as physicochemical. On the procedure:
Gravimetric moisture sorption experiments were carried out on a Hiden dynamic vapour sorption analyzer by first holding the sample at 40% RH and 25° C. until an equilibrium weight was reached or for a maximum of four hours. The sample was then subjected to an isothermal (25° C.) adsorption scan from 40 to 90% RH in steps of 10%. The sample was allowed to equilibrate to an asymptotic weight at each point for a maximum of four hours. Following adsorption, a desorption scan from […] RH (at 25° C.) was run in steps of −10% again allowing a maximum of four hours for equilibration to an asymptotic weight. An adsorption scan was then performed from 0% RH to 40% RH in steps of +10% RH.

The nature of series [3]: Differential scanning calorimetry, phase transition of the polymorphs. Type of series: physicochemical. On the procedure: DSC analyses were carried out on a Mettler 822e differential scanning calorimeter or a TA instruments Q2000. Samples were weighed in an aluminum pan, covered with a pierced lid, and then crimped. Analysis conditions were 30-120, 30-200, 30-300° C. and 40-300° C. ramped at 10° C./min.
Form D can be directly prepared as follows: A 250-mL three neck RBF equipped with a stir bar was charged with compound (I) (6.01 g, 11 mmol) and fumaric acid (1.41 g, 12 mmol). Acetone (50 mL) was added and the slurry was heated to 50° C. until the solution became clear. Precipitation was observed after 10 min, and stirring was continued for an additional 30 min. MTBE (25 mL) was added and the solution was cooled to rt and stirred overnight. The solids were filtered and dried under vacuum at 60° C. for 2 d to give the title compound (I) as a white solid (6.65 g, 91%).
A general note: In DSC, transitions show as peaks or steps in heat flow.

Series [4] in a line: Pharmacokinetics after single oral dose, powder in capsule, plasma levels of compound (I) by LC/MS. The series is classed as in vivo, female Sprague-Dawley rats. The conditions noted are these: Sprague-Dawley rats. As for the experimental part: A single oral dose in solution and as powder in capsule of the HCl salt of (I), fumarate form D and maleate form A were administered to female Sprague-Dawley rats at 5 mg/kg. Blood samples were collected in the presence of lithium heparin, and were centrifuged to generate plasma. The plasma was then analyzed for compound (I) plasma levels by LC/MS.
All animals involved in the dosing schedule were weighed and assigned numbers. All capsules (Size 9 porcine hard gelatin capsules, Torpac) corresponding with each animal to be dosed were carefully numbered with a fine tip Sharpie. A small plastic weighing dish was placed on the scale, with one capsule lid placed on the dish and the base of the capsule loader with the other part of the capsule was loaded in the reservoir. The balance was tared. A funnel was placed on top of the capsule loading apparatus and the total mass was carefully noted. A piece of 4″×4″ wax paper was folded in half creating a crease down the median. A small amount of finely ground compound (Ground the compound if required using mortar and pestle) was deposited in the crease of the wax paper and refolded. The folded wax paper was gently angled over the capsule loader funnel apparatus. A fine scapula was used to tease an amount of compound powder out of the crease onto the funnel allowing it to trickle into the loading bay and ultimately the capsule. The difference in mass from the total mass was noted. The capsule loading funnel was removed and the balance door closed to ascertain the absolute weight of compound inside the capsule. The funnel was returned to the capsule loading apparatus and loading continued until the desired amount of drug was inside the capsule. Note: When adding minute quantities to the capsule, simply brushed fine powered drug that settled on the funnel into the loading column. The funnel was removed and the weight was recorded. Calculated the amount of actual drug by multiplying weighed material by the bioequivalence ratio. The amount of actual drug was recorded. The capsule lid on the weighing dish was used to close the capsule tightly until it clicked into place.
All animals (n=3/group) were dosed orally in a volume of 5 mL/kg. Following dosing, each rat was bled at each of the designated time points. For control animals, blood was collected by the same procedure. Blood was collected from the lateral saphenous vein. Blood aliquots (˜50 μL) were collected in tubes coated with lithium heparin, mixed gently, then kept on ice and centrifuged at 2,500×g for 15 minutes at RT, within 1 hour of collection. The plasma layer was collected, kept on ice and finally maintained frozen at −80° C. until further processing.
Bioanalytical quantitation using HPLC/tandem quadruple mass spectrometry (HPLC-MS) was performed. Plasma concentrations and […] were calculated and reported.
A 5 mg/mL standard solution in DMSO was diluted 100 fold and subsequently serial diluted in 50% DMSO. Aliquots (2 μL) of the serial dilutions were mixed with 18 μL of control plasma (20 μL total) for use as a standard curve. Plasma samples (20 μL) and standard samples were then diluted 5× with ice cold acetonitrile containing 100 ng/mL verapamil as internal standard (80% (v/v) acetonitrile). Acetonitrile precipitated samples and standards were filtered through 0.22 μm membranes in a 96-well format. Filtrates were then diluted with water to 30% acetonitrile.
LC: 10 μL of each sample and standard were injected onto a Waters Acquity CSH 1.7 μm 2.1×100 mm column at 0.6 mL/min by an Acquity UPLC. The C18 column was equilibrated at 10% acetonitrile. Compounds were eluted with a gradient to 99% acetonitrile. All mobile phases contained 0.1% (v/v) formic acid.
MS: Column eluent was analyzed by electrospray ionization into a tandem quadrupole mass spec system (Waters Xevo TQ). Eluent composition was analyzed for three ion-pairs specific for the internal standard and three ion-pairs specific for the analyte. […]

In the case of `COc1ccc2c(c1)[C@]1(C[C@H]1c1ccc3c(/C=C/c4ccc(CN5C[C@@H](C)O[C@@H](C)C5)cc4)n[nH]c3c1)C(=O)N2` [Fumarate (form D)], the “Solubility in DI water” value in series [1] (listed as Fumarate D) stood at 0.17 mg/mL. In addition, the “Gravimetric Moisture Sorption” value in series [2] (60% RH, listed as Fumarate D) came out at 2.1 wt % 60% RH. The “Gravimetric Moisture Sorption” value in series [2] (90% RH, listed as Fumarate D) stood at 4.0 wt % 90% RH. For the same molecule, the “Stability among the four fumarate polymorphs (phase transition by DSC)” value in series [3] was “highest stability”. In series [4] (5.0 mg/kg), this molecule displayed an AUC0-tlast of 2780 ng·h/mL and a Cmax of 270 ng/mL.

For `COc1ccc2c(c1)[C@]1(C[C@H]1c1ccc3c(/C=C/c4ccc(CN5C[C@@H](C)O[C@@H](C)C5)cc4)n[nH]c3c1)C(=O)N2` [Maleate (form A)], the “Gravimetric Moisture Sorption” value in series [2] (60% RH, listed as Maleate A) is 1.3 wt %, 60% RH; in series [2] (90% RH, listed as Maleate A), 2.2 wt %, 90% RH. The AUC0-tlast in series [4] (5.0 mg/kg) is 1500 ng·h/mL. Besides, the Cmax in series [4] (5.0 mg/kg) stood at 200 ng/mL.

On to `COc1ccc2c(c1)[C@]1(C[C@H]1c1ccc3c(/C=C/c4ccc(CN5C[C@@H](C)O[C@@H](C)C5)cc4)n[nH]c3c1)C(=O)N2` [1:1 compound (I) maleate], for which, in series [2], the “Hygroscopicity (in words)” value is given as “non-hygroscopic”.

Consider `COc1ccc2c(c1)[C@]1(C[C@H]1c1ccc3c(/C=C/c4ccc(CN5C[C@@H](C)O[C@@H](C)C5)cc4)n[nH]c3c1)C(=O)N2` [Phosphate], for which the “Solubility in DI water” value in series [1] was at least 100 mg/mL. Besides, the “Gravimetric Moisture Sorption” value in series [2] (60% RH) is 6.1 wt % 60% RH; in series [2] (90% RH) it was 10.9 wt % 90% RH.

On to `COc1ccc2c(c1)[C@]1(C[C@H]1c1ccc3c(/C=C/c4ccc(CN5C[C@@H](C)O[C@@H](C)C5)cc4)n[nH]c3c1)C(=O)N2` [Fumarate C], for which the “Solubility in DI water” value in series [1] is 0.625 mg/mL.

`COc1ccc2c(c1)[C@]1(C[C@H]1c1ccc3c(/C=C/c4ccc(CN5C[C@@H](C)O[C@@H](C)C5)cc4)n[nH]c3c1)C(=O)N2` [HCl]: the “Solubility in DI water” value in series [1] was at least 100 mg/mL. The AUC(0-t) in series [4] (female, Sprague-Dawley, rat, plasma, po, 5 mg/kg, read-out: AUC0-tlast) stood at 2400 ng·h/mL. Further, in series [4] (female, Sprague-Dawley, rat, plasma, po, 5 mg/kg, read-out: Cmax), the Cmax is 250 ng/mL.

On to `COc1ccc2c(c1)[C@]1(C[C@H]1c1ccc3c(/C=C/c4ccc(CN5C[C@@H](C)O[C@@H](C)C5)cc4)n[nH]c3c1)C(=O)N2` [1:1 Compound (I) fumarate], for which, in series [2], the “Hygroscopicity (in words)” value was “non-hygroscopic”.

For the molecule `COc1ccc2c(c1)[C@]1(C[C@H]1c1ccc3c(/C=C/c4ccc(CN5C[C@@H](C)O[C@@H](C)C5)cc4)n[nH]c3c1)C(=O)N2` [Fumarate B], the “Gravimetric Moisture Sorption” value in series [2] (60% RH) is given as 3.7 wt % 60% RH. In series [2] (90% RH), the “Hydrate formed on moisture sorption” value was “tetrahydrate” and the “Gravimetric Moisture Sorption” value is listed as 10.5 wt % 90% RH. For the same molecule, the “Hygroscopicity (in words)” value in series [2] (listed as Form B) is “hygroscopic”.

In general, Cmax refers to the maximum level reached in the sampled fluid or tissue.
